Assay results: PubChem BioAssay AID214 (DTP/NCI, 2004)
“And” between values parts separate entries of the source, which are not always exact repeats. Equal entries are not always repeated. Results filed as inconclusive are left out.

System: B6C3F1 mice, colon carcinoma 38 s.c., T/C
Assay: NCI In Vivo Anticancer Drug Screen. Data for tumor model Colon Carcinoma 38 (subcutaneous) in B6C3F1 mice
Conditions: higher = larger tumour
Protocol: The antitumor activity of compounds was measured in mice bearing transplantable tumors. Survival or tumor size were measured and the results are expressed as the measurement made in the treated group (T) divided by the measurement made in the vehicle treated control group (C). The tumor model used in this assay is Colon Carcinoma 38 (subcutaneous) in B6C3F1 mice

[1] = endpoint: median tumor weight (est.), dose: 150.0 mg/kg/injection, schedule: Q07DX002 (ip), vehicle: suspension in saline
[2] = endpoint: median tumor weight (est.), dose: 100.0 mg/kg/injection, schedule: Q07DX002 (ip), vehicle: saline
[3] = endpoint: median tumor weight (est.), dose: 200.0 mg/kg/injection, schedule: Q07DX002 (ip), vehicle: saline

In the case of `O=C(O)Cc1cccc2c(=O)cc(-c3ccccc3)oc12`, the T/C (endpoint: median tumor weight (est.), dose: 33.0 mg/kg/injection, schedule: Q07DX002 (ip), vehicle: suspension in saline) is reported as 67 % of control, the T/C (endpoint: median tumor weight (est.), dose: 63.0 mg/kg/injection, schedule: Q07DX002 (ip), vehicle: clinical formulation) is reported as 109 % of control and the T/C (endpoint: median tumor weight (est.), dose: 63.0 mg/kg/injection, schedule: Q07DX002 (ip), vehicle: sodium bicarbonate) is reported as 100 % of control. The T/C (endpoint: median tumor weight (est.), dose: 63.0 mg/kg/injection, schedule: Q07DX002 (iv), vehicle: clinical formulation) was 114 % of control, the T/C (endpoint: median tumor weight (est.), dose: 63.0 mg/kg/injection, schedule: Q07DX002 (iv), vehicle: sodium bicarbonate) was 90 % of control and the T/C (endpoint: median tumor weight (est.), dose: 66.0 mg/kg/injection, schedule: Q07DX002 (ip), vehicle: suspension in saline) was 89 % of control. The T/C (endpoint: median tumor weight (est.), dose: 84.0 mg/kg/injection, schedule: Q07DX002 (ip), vehicle: clinical formulation) was 91 % of control, the T/C (endpoint: median tumor weight (est.), dose: 84.0 mg/kg/injection, schedule: Q07DX002 (ip), vehicle: sodium bicarbonate) was 155 % of control and the T/C (endpoint: median tumor weight (est.), dose: 84.0 mg/kg/injection, schedule: Q07DX002 (iv), vehicle: clinical formulation) was 67 % of control. For the same compound, the T/C (endpoint: median tumor weight (est.), dose: 84.0 mg/kg/injection, schedule: Q07DX002 (iv), vehicle: sodium bicarbonate) was 82 % of control, the T/C (endpoint: median tumor weight (est.), dose: 100.0 mg/kg/injection, schedule: Q07DX002 (ip), vehicle: suspension in saline) was 90 % of control and the T/C (endpoint: median tumor weight (est.), dose: 112.0 mg/kg/injection, schedule: Q07DX002 (ip), vehicle: clinical formulation) was 95 % of control. The T/C (endpoint: median tumor weight (est.), dose: 112.0 mg/kg/injection, schedule: Q07DX002 (iv), vehicle: clinical formulation) was 74 % of control, the T/C (endpoint: median tumor weight (est.), dose: 112.0 mg/kg/injection, schedule: Q07DX002 (iv), vehicle: sodium bicarbonate) was 84 % of control and 102 % of control and the T/C (endpoint: median tumor weight (est.), dose: 128.0 mg/kg/injection, schedule: Q07DX002 (ip), vehicle: water) was 79 % of control. For the same compound, the T/C (endpoint: median tumor weight (est.), dose: 150.0 mg/kg/injection, schedule: Q07DX002 (ip), vehicle: clinical formulation) was 14 % of control, the T/C (endpoint: median tumor weight (est.), dose: 150.0 mg/kg/injection, schedule: Q07DX002 (ip), vehicle: sodium bicarbonate) was 101 % of control and the T/C [1] was 10 % of control. The T/C (endpoint: median tumor weight (est.), dose: 150.0 mg/kg/injection, schedule: Q07DX002 (iv), vehicle: clinical formulation) was 47 % of control, the T/C (endpoint: median tumor weight (est.), dose: 150.0 mg/kg/injection, schedule: Q07DX002 (iv), vehicle: sodium bicarbonate) was 57 % of control and the T/C (endpoint: median tumor weight (est.), dose: 160.0 mg/kg/injection, schedule: Q07DX002 (ip), vehicle: water) was 81 % of control. For the same compound, the T/C (endpoint: median tumor weight (est.), dose: 200.0 mg/kg/injection, schedule: Q07DX002 (ip), vehicle: sodium bicarbonate) was 79 % of control and 87 % of control, the T/C (endpoint: median tumor weight (est.), dose: 200.0 mg/kg/injection, schedule: Q07DX002 (ip), vehicle: water) was 25 % of control and the T/C (endpoint: median tumor weight (est.), dose: 250.0 mg/kg/injection, schedule: Q07DX002 (ip), vehicle: water) was 13 % of control. For the same compound, the T/C (endpoint: median tumor weight (est.), dose: 267.0 mg/kg/injection, schedule: Q07DX002 (iv), vehicle: sodium bicarbonate) was 77 % of control, the T/C (endpoint: median tumor weight (est.), dose: 356.0 mg/kg/injection, schedule: Q07DX002 (iv), vehicle: sodium bicarbonate) was 77 % of control and the T/C (endpoint: optimum tumor weight change, dose: 128.0 mg/kg/injection, schedule: Q07DX002 (ip), vehicle: water) was 78 % of control. For the same compound, the T/C (endpoint: optimum tumor weight change, dose: 160.0 mg/kg/injection, schedule: Q07DX002 (ip), vehicle: water) was 50 % of control, the T/C (endpoint: optimum tumor weight change, dose: 200.0 mg/kg/injection, schedule: Q07DX002 (ip), vehicle: water) was 72 % of control and the T/C (endpoint: optimum tumor weight change, dose: 250.0 mg/kg/injection, schedule: Q07DX002 (ip), vehicle: water) was 20 % of control.
In the case of `NC(=O)CCC(N)C(=O)O` (stereo not drawn), the T/C (endpoint: median tumor weight (est.), dose: 75.0 mg/kg/injection, schedule: Q07DX002 (ip), vehicle: suspension in saline) is reported as 113 % of control, the T/C [1] is reported as 43 % of control and the T/C (endpoint: median tumor weight (est.), dose: 300.0 mg/kg/injection, schedule: Q07DX002 (ip), vehicle: suspension in saline) is reported as 84 % of control. The T/C (endpoint: median tumor weight (est.), dose: 600.0 mg/kg/injection, schedule: Q07DX002 (ip), vehicle: suspension in saline) was 101 % of control and the T/C (endpoint: median tumor weight (est.), dose: 1200.0 mg/kg/injection, schedule: Q07DX002 (ip), vehicle: suspension in saline) was 91 % of control.
`CS(=O)(=O)OCCCCOS(C)(=O)=O` was tested, and the T/C (endpoint: median tumor weight (est.), dose: 50.0 mg/kg/injection, schedule: Q01DX006 (ip), vehicle: saline with Tween-80) was 16 % of control.
With `Cc1cc(=O)c2cccc(CC(=O)O)c2o1` the T/C (endpoint: median tumor weight (est.), dose: 400.0 mg/kg/injection, schedule: Q07DX002 (ip), vehicle: Klucel (hydroxypropylcellulose) (HPC)) was 117 % of control.
`O=C(O)COc1cccc2c(=O)cc(-c3ccccc3)oc12` was tested, and the T/C [2] was 52 % of control and the T/C [3] was 109 % of control.
`Cc1ccc2nc(-c3ccc4nc(-c5ccc(N=Nc6ccc(-c7nc8ccc(-c9nc%10ccc(C)c(S(=O)(=O)O)c%10s9)cc8s7)cc6)cc5)sc4c3)sc2c1S(=O)(=O)O` was tested, and the T/C (endpoint: median tumor weight (est.), dose: 50.0 mg/kg/injection, schedule: Q07DX002 (ip), vehicle: saline) was 72 % of control, the T/C [2] was 101 % of control and the T/C [3] was 84 % of control. The T/C (endpoint: median tumor weight (est.), dose: 400.0 mg/kg/injection, schedule: Q07DX002 (ip), vehicle: saline) was 82 % of control.
